Laboratory results reported in article PMC7582727, “Functional Impact of BeKm-1, a High-Affinity hERG Blocker, on Cardiomyocytes Derived from Human-Induced Pluripotent Stem Cells” (International Journal of Molecular Sciences, 2020).
“Also recorded” adds a separate entry of the source. Where two headings read alike, the source gives them in different places. Positions of bridges follow the written chain, without caps; N, C: chain ends. Residues, ends and D or L forms follow the SMILES beside them.

Columns and labels:
[1] = system: hiPS-CMs (clone C2a, ventricular-like); assay: Manual patch-clamp of spontaneous action potentials in hiPS-CMs; format: cell-based, human
Source text: For this study, we used a non-commercial hiPS cell clone (C2a) that has been fully characterized earlier in the laboratory. The properties of the cardiomyocytes derived from this clone may differ to some extent from those of commercial clones, but this should not affect the nature of the conclusions derived from our investigations. […] The effects on AP characteristics also included the depolarization of the maximum diastolic potential (MDP) from −52.2 ± 1.7 mV to −36.1 ± 2.3 mV (n = 7, Figure 2D) and the decrease of maximal upstroke velocity from 6.9 ± 0.9 mV/s (vehicle, n = 7) to 4.6 ± 0.9 mV/s (BeKm-1, n = 7), representing an average 1.5-fold reduction (Figure 2E). […] The action potential duration (APD) at 30% and 50% of repolarization were spared, which is consistent with the role of hERG in the late phase of repolarization in these cells (Figure 2G). In contrast, BeKm-1 was able to delay the repolarization of these cells, increasing the APD at 90% repolarization (APD90) from 95.0 ± 8.4 ms (vehicle, n = 7) to 117.4 ± 11.3 ms (BeKm-1, n = 7; 23% increase) (Figure 2G). While these values could theoretically be corrected for the BeKm-1-induced variability in cycle length (Figure 2C) using the Fridericia cube root formula, the corrected data would be meaningless because of the additional depolarization in MDP (Figure 2D).
(§1) hiPS-CMs: All experiments were performed on the human-induced pluripotent stem cell (hiPSC) clone C2a that has been previously characterized, including cardiac differentiation and electrophysiology data. Cells were expanded on stem cell-qualified matrigel-coated plates (0.05 mg/mL; BD Bioscience, Le Pont de Claix, France) and cultured in StemMACS iPS-BREW XF medium (Miltenyi Biotec, Paris, France). Cells were passaged every […] using Gentle Cell Dissociation Buffer (StemCell Technologies, Grenoble, France). Prior to differentiation, cells were cultured as a monolayer in StemMACS iPS-brew supplemented with 1 × Y-27632 Rho-associated, coiled-coil containing protein kinase (ROCK) inhibitor (StemCell Technologies, Grenoble, France). When hiPSCs reached proper confluence, they were differentiated into cardiomyocytes using previously described « Matrix sandwich » protocol. At day 20 ± 1 of differentiation, beating cardiomyocytes were manually dissected and isolated from non-beating cells. Briefly, cardiomyocytes were washed with phosphate-buffered saline (PBS) and treated with TrypLE Express (10x) (Thermo Fisher Scientific, Illkirch-Graffenstaden, France) for 5 min at 37 °C. The enzyme was inactivated by adding RPMI1640 medium containing 20% (vol/vol) KnockOut Serum Replacement (KSR) (Thermo Fisher Scientific, Illkirch-Graffenstaden, France). The supernatant was removed, and cells were suspended in RPMI1640 medium containing 20% (vol/vol) KSR and ROCK inhibitor. Then, the cells were plated on specific supports suitable for functional assessments.
(§2) Manual patch clamp: Single-cell dissociated hiPS-CMs were plated at low density on matrigel-coated 35 mm Petri dishes (Nunc from Thermo Fisher Scientific, Illkirch-Graffenstaden, France). Electrophysiological experiments were performed 12 to 14 days after dissociation. APs were recorded in the current-clamp mode, using the amphotericin-B-perforated patch-clamp technique. All experiments were conducted at 37 °C. APs were recorded either at basal state (spontaneous APs) or using the dynamic patch-clamp method to electronically mimic the expression of the inward rectifier potassium current, IK1 [23, 24]. The resting membrane potential (RMP) was set to −80 ± 5 mV by injecting 2 to 2.8 pA/pF in silico IK1 density. This level of current was set so that about 80% of the ventricular-like hiPS-CMs could reach these physiological RMP values. The remaining cells were discarded from the recording process. […]

[2] = system: hiPS-CMs (clone C2a, ventricular-like); format: cell-based, human
Experimental: Although the effect of BeKm-1 on APD90 was expected from a block of hERG channels, the other effects (i.e., membrane depolarization, reduction in AP frequency, and decrease of maximal upstroke velocity) are most likely a secondary consequence of the absence of IK1 in hiPS-CMs due to incomplete maturation level of these cells during the differentiation process (a recurrent problem in differentiating hiPS into cardiomyocytes). The 5 nM concentration of BeKm-1 was chosen to spare a fraction of the hERG channels in these cells. Therefore, we also tested a higher concentration (100 nM) in order to affect all hERG channels. […] This observation is coherent with the fact that a stronger IK1 current would be needed in hiPS-CMs to maintain a more negative membrane potential typical for CMs. […] In this technique, a current density of 2.8 pA/pF is injected in order to successfully reach an RMP value of −80 mV. […] Representative APs, paced at a constant cycling length of 700 ms with IK1, are shown before and after the application of 5 nM BeKm-1 (Figure 3A,B). […] Logically, these APs were excluded from further analysis of AP parameters. IK1 in silico injection efficiently allowed for setting a real resting membrane potential (RMP) at −80 mV in these hiPS-CMs, causing the cessation of spontaneous APs (not shown). As a result of IK1 taking the relay over IKr, there was no effect of 5 nM BeKm-1 on RMP (Figure 3C). […] The average prolongation of APD90 and variability is also detailed cell by cell (Figure S3).
as §1
as §2, with “values.” for “values. The remaining cells were discarded from the recording process.”

[3] = 5 nM, dynamic clamp, paced every 700 ms

## CC[C@H](C)[C@H](NC(=O)[C@H](CC(=O)O)NC(=O)[C@@H](NC(=O)[C@@H]1CCCN1C(=O)[C@@H](N)CCCNC(=N)N)[C@@H](C)O)C(=O)N[C@@H](CCCCN)C(=O)N[C@H]1CSSC[C@@H]2NC(=O)[C@H](CCCNC(=N)N)NC(=O)CNC(=O)[C@H](CC(N)=O)NC(=O)[C@H]([C@@H](C)O)NC(=O)[C@H](CCCCN)NC(=O)CNC(=O)[C@H](Cc3ccccc3)NC(=O)[C@H](CCCNC(=N)N)NC(=O)[C@H](CO)NC(=O)[C@H](CCCCN)NC(=O)[C@@H]3CSSC[C@@H](C(=O)N[C@@H](Cc4ccccc4)C(=O)O)NC(=O)[C@H](CC(=O)O)NC(=O)[C@H](CSSC[C@H](NC(=O)[C@H](CCC(N)=O)NC(=O)[C@H](Cc4ccc(O)cc4)NC(=O)[C@H](CO)NC(=O)[C@H](CCC(=O)O)NC(=O)[C@H](CO)NC1=O)C(=O)N[C@@H](Cc1ccccc1)C(=O)N1CCC[C@H]1C(=O)N[C@@H](C(C)C)C(=O)N3)NC(=O)[C@H](Cc1ccccc1)NC(=O)CNC(=O)[C@H](CC(N)=O)NC(=O)[C@H](C(C)C)NC2=O [BeKm-1] (H-RPTDIKCSESYQCFPVCKSRFGKTNGRCVNGFCDCF-OH; disulfide 7-28, 13-33, 17-35 (inferred); N-terminus and C-terminus assumed)
[1]; 5 nM BeKm-1, 37 °C, vehicle 2.50 ± 0.20 Hz, n = 7, mean ± SEM, significant
  AP frequency: 0.70 ± 0.26 Hz
[1]; 5 nM application, Figure S2
  kinetics of AP parameter changes: changed according to similar kinetics
[1]; 5 nM vs vehicle, average
  maximal upstroke velocity, fold reduction: 1.5 -fold
[1]; 5 nM vs vehicle, spontaneous APs
  APD90 increase: 23%
[1]; 5 nM, representative time course, Figure S2
  restitution of AP parameters after toxin washout: rather rapid restitution of these parameters after toxin washout
[1]; 5 nM, spontaneous APs
  APD at 30% and 50% of repolarization: spared
[1]; 5 nM, spontaneous APs, vehicle 95.0 ± 8.4 ms, n = 7, mean ± SEM, not corrected for cycle length
  APD at 90% repolarization (APD90): 117.4 ± 11.3 ms
[1]; 5 nM, Poincaré plot
  APD90 variability: increased
[1]; 5 nM, Poincaré plot of consecutive APs
  AP rhythm variability: increase of rhythm variability
[1]; 5 nM, vehicle 6.9 ± 0.9 mV/s, n = 7, mean ± SEM
  maximal upstroke velocity (dV/dtmax): 4.6 ± 0.9 mV/s
[1]; 5 nM, vehicle 29.9 ± 3.1 mV, n = 7, mean ± SEM, not significant
  AP overshoot: 22.2 ± 6.4 mV
[1]; 5 nM, vehicle −52.2 ± 1.7 mV, n = 7, mean ± SEM
  maximum diastolic potential (MDP): −36.1 ± 2.3 mV
[1]; 100 nM, representative trace of single hiPS-CM
  beating / AP arrest: AP arrest; also recorded: complete beating arrest by a major membrane depolarization
[1]; spontaneously beating ventricular-like cells
  early afterdepolarizations (EADs): never observed
[1]; wash after 5 nM, n = 5
  reversibility on wash: fully restored all parameters
[2]; 5 nM vs vehicle, average, dynamic clamp
  APD90 prolongation: 29%
[2]; 5 nM, RMP set to −80 mV by IK1 injection, paced every 700 ms
  resting membrane potential (RMP): no effect
[2]; 5 nM, dynamic clamp, cycle length 700 ms, 37 °C, vehicle 121.9 ± 11.0 ms, n = 10, mean ± SEM
  APD90: 156.7 ± 16.9 ms
[2]; [3]
  AP overshoot: no significant effect
  APD30 and APD50: did not alter
  maximal upstroke velocity: no significant effect
[2]; 5 nM, dynamic clamp, Poincaré plot
  APD90 variability: greater APD90 variability
